{
  "source": "ChEMBL document CHEMBL1130528",
  "about": "“Synthesis of inhibitors of glutamyl-tRNA synthetase” (Bioorg Med Chem Lett, 1997)",
  "biological_target": "Glutamate--tRNA ligase (Escherichia coli) (UniProt P04805)",
  "sequence (P04805 whole entry, looked up)": "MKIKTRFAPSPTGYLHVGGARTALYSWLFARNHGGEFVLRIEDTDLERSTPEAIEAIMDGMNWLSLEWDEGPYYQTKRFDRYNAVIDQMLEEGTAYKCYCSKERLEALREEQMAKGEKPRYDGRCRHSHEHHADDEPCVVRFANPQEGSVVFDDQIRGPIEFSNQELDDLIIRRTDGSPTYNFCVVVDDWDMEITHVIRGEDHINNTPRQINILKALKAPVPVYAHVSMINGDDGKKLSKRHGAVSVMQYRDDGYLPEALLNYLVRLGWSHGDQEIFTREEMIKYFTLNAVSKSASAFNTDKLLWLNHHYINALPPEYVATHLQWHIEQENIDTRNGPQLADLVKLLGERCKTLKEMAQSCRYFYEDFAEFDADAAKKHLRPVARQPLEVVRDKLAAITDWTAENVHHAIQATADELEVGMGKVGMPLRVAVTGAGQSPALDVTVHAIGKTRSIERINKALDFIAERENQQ",
  "assay": "Compound was tested for the inhibition of Escherichia coli glutamyl-t-RNA synthetase; NI means No inhibition; call rule not given here",
  "data": [
    {"compound": "CCCCCCCCOC(=O)C(N)CCC(=O)O", "note": "(stereo unspecified)", "values": [
      {"measurement": "Ki", "value": "Not Active"}
    ]}
  ]
}
